Counter-ions that a name gives are not always drawn. Like-named read-outs stand apart in the source and are kept apart here.
Columns and labels:
Format in all cases: cell-based, human
[1] = test system: Target C mRNA; test: Splicing RT-qPCR gene panel, Target C canonical junction (CJ) mRNA; settings: Homo sapiens, Tables 4A/4B, read-out: Target C (IC50, decrease in CJ mRNA, gene panel)
Description: (§1) Compounds described herein were used to modulate RNA transcript abundance in cells. The expression of a target mRNA was measured by detecting the formation of an exon-exon junction in the canonical transcript (CJ). A compound mediated exon-inclusion event was detected by observing an increase in formation of a new junction with an alternative exon (AJ). Real-time qPCR assays were used to detect these splicing switches and interrogate the potency of various compounds towards different target genes. A high-throughput real time quantitative PCR (RT-qPCR) assay was developed to measure these two isoforms of the mRNA (CJ and AJ) for exemplary genes, such as HTT, SMN2, and MYB, together with a control housekeeping gene, GAPDH or GUSB or PPIA, used for normalization. Briefly, the A673 or K562 cell line was treated with various compounds described herein (e.g., compounds of Formula (I)). After treatment, the levels of the HTT, MYB, or SMN2 mRNA targets were determined from each sample of cell lysate by cDNA synthesis followed by qPCR.
(§2) The A673 cell line was cultured in DMEM with 10% FBS. Cells were diluted with full growth media and plated in a 96-well plate (15,000 cells in 100 ul media per well). The plate was incubated at 37° C. with 5% CO2 for 24 hours to allow cells to adhere. An 11-point 3-fold serial dilution of the compounds was made in DMSO then diluted in media in an intermediate plate. Compounds were transferred from the intermediate plate to the cell plate with the top dose at a final concentration of 10 uM in the well. Final DMSO concentration was kept at or below 0.25%. The cell plate was returned to the incubator at 37° C. with 5% CO2 for an additional 24 hours.
(§3) The K562 cell line was cultured in IMDM with 10% FBS. For K562, cells were diluted with full growth media and plated in either a 96-well plate (50,000 cells in 50 uL media per well) or a 384-well plate (8,000-40,000 cells in 45 uL media per well). An 11-point 3-fold serial dilution of the compounds were made in DMSO then diluted in media in an intermediate plate. Compound was transferred from the intermediate plate to the cell plate with the top dose at a final concentration of 10 uM in the well. Final DMSO concentration was kept at or below 0.25%. Final volume was 100 uL for 96-well plate and 50 uL for 384-well plate. The cell plate was then placed in an incubator at 37° C. with 5% CO2 for 24 hours.
(§4) The cells were then gently washed with 50 uL-100 uL cold PBS before proceeding to addition of lysis buffer. 30 uL-50 uL of room temperature lysis buffer with DNAse I (and optionally RNAsin) was added to each well. Cells were shaken/mixed thoroughly at room temperature for 5-10 minutes for lysis to take place and then 3 uL-5 uL of room temperature stop solution was added and wells were shaken/mixed again. After 2-5 minutes, the cell lysate plate was transferred to ice for RT-qPCR reaction setup. The lysates could also be frozen at −80° C. for later use.
(§5) In some cases, a direct lysis buffer was used. An appropriate volume of 3× lysis buffer (10 mM Tris, 150 mM NaCl, 1.5%-2.5% Igepal and 0.1-1 U/uL RNAsin, pH 7.4) was directly added to either K562 or A673 cells in media and mixed by pipetting 3 times. The plates were then incubated at room temperature with shaking/rocking for 20-50 minutes to allow for lysis to take place. After this time, the cell lysate plate was transferred to ice to set up for the RT-qPCR reactions. The lysates could also be frozen at −80° C. for later use.
(§6) To set up 10 uL RT-qPCR reactions, cell lysates were transferred to 384-well qPCR plates containing the master mix according to the table below. The plates were sealed, gently vortexed, and spun down before the run. The volumes were adjusted accordingly in some instances where the reaction was carried in 20 μL. The table below summarizes the components of the RT-qPCR reactions:
(§7) The RT-qPCR reaction was performed using a QuantStudio (ThermoFisher) under the following fast cycling conditions. […]

[2] = test system: MYB mRNA; test: Splicing RT-qPCR assay, MYB canonical (CJ) and alternative (AJ) junction mRNA; settings: Homo sapiens
Procedure, shortened: (§8)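 One-step RT-qPCR on cell lysates, CJ and AJ isoforms quantified; housekeeping normalization GAPDH/GUSB (K562) or PPIA (A673). Cells: A673 in DMEM/10% FBS or K562 in IMDM/10% FBS. Compounds 11-pt 3-fold, top 10 uM, 24 h, 37 °C, 5% CO2.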

[3] = test system: HTT mRNA; test: Splicing RT-qPCR assay, HTT canonical (CJ) and alternative (AJ) junction mRNA; settings: Homo sapiens
Procedure, shortened: as §8

[4] = test system: SMN2 mRNA; test: Splicing RT-qPCR gene panel, SMN2 canonical junction (CJ) mRNA; settings: Homo sapiens, Tables 4A/4B, read-out: SMN2 (IC50, decrease in CJ mRNA, gene panel)
Description: as §1, §2, §3, §4, §5, §6, §7

[5] = test system: HTT mRNA; test: Splicing RT-qPCR gene panel, HTT canonical junction (CJ) mRNA; settings: Homo sapiens, Tables 4A/4B, read-out: HTT (IC50, decrease in CJ mRNA, gene panel)
Description: as §1, §2, §3, §4, §5, §6, §7

[6] = 24 h, A673 or K562 cells, 24 hours compound treatment, RT-qPCR, read-out: MYB AJ (AC50, increase in alternative junction mRNA)
[7] = 24 h, A673 or K562 cells, 24 hours compound treatment, RT-qPCR, read-out: MYB CJ (IC50, decrease in canonical junction mRNA)
[8] = Tables 4A/4B, canonical junction qPCR panel, read-out: MYB (IC50, decrease in CJ mRNA, gene panel)
[9] = 24 h, A673 or K562 cells, 24 hours compound treatment, read-out: HTT CJ (IC50, decrease in canonical junction mRNA)
[10] = A673 or K562 cells, 24 hours compound treatment, read-out: HTT AJ (AC50, increase in alternative junction mRNA)
[11] = Table 3B, canonical junction mRNA, RT-qPCR, read-out: MYB CJ (IC50, decrease in CJ mRNA)
[12] = Table 3B, alternative junction mRNA, RT-qPCR, read-out: MYB AJ (AC50, increase in AJ mRNA)
[13] = Table 3B, alternative junction mRNA, read-out: HTT AJ (AC50, increase in AJ mRNA)
[14] = Table 3B, canonical junction mRNA, read-out: HTT CJ (IC50, decrease in CJ mRNA)

SMILES | IC50 [1] [nM] | IC50 [2, 7] [nM] | IC50 [2, 8] [nM] | IC50 [3, 9] [nM] | IC50 [4] [nM] | IC50 [5] [nM] | IC50 [2, 11] [nM] | IC50 [3, 14] [nM] | AC50 [2, 6] [nM] | AC50 [3, 10] [nM] | AC50 [2, 12] [nM] | AC50 [3, 13] [nM]
Cc1cn2cc(NC(=O)c3ccc(N4CCNCC4)c4cn(C)nc34)nc(C)c2n1 [Compound 293, N-{2,8-dimethylimidazo[1,2-a]pyrazin-6-yl}-2-methyl-4-(piperazin-1-yl)indazole-7-carboxamide] | > 10000 | < 100 | < 100 | 1000 to 10000 | < 100 | 1000 to 10000 |  |  | < 100 | 100 to 1000 |  | 
Cc1cn2cc(NC(=O)c3ccc(N4CC5(CN(C)C5)C4)c4cn(C)nc34)cc(F)c2n1 [Compound 243] | 1000 to 10000 | < 100 | < 100 | 100 to 1000 | < 100 | 100 to 1000 |  |  | < 100 | 100 to 1000 |  | 
Cc1cn2cc(NC(=O)c3ccc(N4CCC(NC(C)(C)C)C4)c4cn(C)nc34)cc(F)c2n1 (stereo not drawn) [Compound 249] | > 10000 | 100 to 1000 | 100 to 1000 | > 10000 | < 100 | > 10000 |  |  | 100 to 1000 | > 10000 |  | 
COCCn1cc2c(N3CCNCC3)ccc(C(=O)Nc3cc(F)c4nc(C)cn4c3)c2n1 [Compound 292, N-{8-fluoro-2-methylimidazo[1,2-a]pyridin-6-yl}-2-(2-methoxyethyl)-4-(piperazin-1-yl)indazole-7-carboxamide hydrochloride] | 1000 to 10000 | < 100 | < 100 | 1000 to 10000 | < 100 | 1000 to 10000 |  |  | < 100 | 1000 to 10000 |  | 
Cc1cn2cc(NC(=O)c3ccc(N4CCNCC4)c4c(C)n(C)nc34)cc(F)c2n1 [Compound 297] | 1000 to 10000 | 1000 to 10000 | 1000 to 10000 | 1000 to 10000 | 100 to 1000 | 1000 to 10000 |  |  | 1000 to 10000 | 1000 to 10000 |  | 
Cc1cn2cc(NC(=O)c3cc(F)c(N4CCNCC4)c4cn(C)nc34)cc(F)c2n1 [Compound 303, 5-fluoro-N-{8-fluoro-2-methylimidazo[1,2-a]pyridin-6-yl}-2-methyl-4-(piperazin-1-yl)indazole-7-carboxamide] | > 10000 | 100 to 1000 | 100 to 1000 | 1000 to 10000 | < 100 | 1000 to 10000 |  |  | 100 to 1000 | 1000 to 10000 |  | 

Further lines, with some results ahead:

IC50 [1] [nM] | IC50 [2, 7] [nM] | IC50 [2, 8] [nM] | IC50 [3, 9] [nM] | IC50 [4] [nM] | IC50 [5] [nM] | IC50 [2, 11] [nM] | IC50 [3, 14] [nM] | SMILES | AC50 [2, 6] [nM] | AC50 [3, 10] [nM] | AC50 [2, 12] [nM] | AC50 [3, 13] [nM]
> 10000 | < 100 | < 100 | 1000 to 10000 | < 100 | 1000 to 10000 |  |  | CNC1CCN(c2ccc(C(=O)Nc3cc(F)c4nc(C)cn4c3)c3nn(C)cc23)C1 (stereo in doubt) [Compound 387, N-{8-fluoro-2-methylimidazo[1,2-a]pyridin-6-yl}-2-methyl-4-[(3R)-3-(methylamino)pyrrolidin-1-yl]indazole-7-carboxamide] | < 100 | 1000 to 10000 |  | 
> 10000 | > 10000 | > 10000 | > 10000 | > 10000 | > 10000 |  |  | COc1c(NC(=O)c2ccc(N3CCNCC3)c3cn(C)nc23)cc(C)c2nn(C)cc12 [Compound 456] | 1000 to 10000 | > 10000 |  | 
1000 to 10000 | > 10000 | 100 to 1000 | > 10000 | < 100 | 1000 to 10000 |  |  | Cc1cn2cc(NC(=O)c3ccc(N4CCNCC4)c4nnn(C)c34)cc(F)c2n1 [Compound 435, N-{8-fluoro-2-methylimidazo[1,2-a]pyridin-6-yl}-3-methyl-7-(piperazin-1-yl)-1,2,3-benzotriazole-4-carboxamide] | > 10000 | > 10000 |  | 
1000 to 10000 |  | < 100 |  | < 100 | 1000 to 10000 | < 100 | 1000 to 10000 | CCn1cc2c(N3CCC(N)(CC)CC3)ncc(C(=O)Nc3cc(F)c4nc(C)cn4c3)c2n1 [Compound 969] |  |  | < 100 | > 10000
> 10000 | 100 to 1000 | > 10000 | > 10000 | > 10000 | > 10000 |  |  | Cc1cn2cc(NC(=O)c3ccc(N4CCNCC4)c4c3nnn4C)cc(F)c2n1 [Compound 436, N-{8-fluoro-2-methylimidazo[1,2-a]pyridin-6-yl}-1-methyl-7-(piperazin-1-yl)-1,2,3-benzotriazole-4-carboxamide] | 100 to 1000 | > 10000 |  | 
1000 to 10000 |  | < 100 |  | < 100 | 100 to 1000 | < 100 | 100 to 1000 | COc1c(NC(=O)c2ccc(N3CC[C@@H](NC4CC4)C3)c3nc(C)nn23)cn2cc(C)nc2c1F [Compound 968] |  |  | 100 to 1000 | 1000 to 10000
> 10000 | > 10000 | > 10000 | > 10000 | > 10000 | > 10000 |  |  | Cc1nnc2n1CC(NC(=O)c1ccc(N3CCNCC3)c3cn(C)nc13)CC2 (stereo not drawn) [Compound 470, 2-methyl-N-{3-methyl-5H,6H,7H,8H-[1,2,4]triazolo[4,3-a]pyridin-6-yl}-4-(piperazin-1-yl) indazole-7-carboxamide] | > 10000 | > 10000 |  | 
1000 to 10000 |  | < 100 |  | < 100 | 1000 to 10000 | < 100 | 1000 to 10000 | Cc1cn2cc(NC(=O)c3ccc(N4CC[C@@H](NC5CC5)C4)c4csnc34)cc(F)c2n1 [Compound 973] |  |  | < 100 | 1000 to 10000
> 10000 | < 100 | < 100 | 1000 to 10000 | < 100 | 1000 to 10000 |  |  | CCn1cc2c(N3CCN[C@H](CO)C3)ccc(C(=O)Nc3cc(F)c4nc(C)cn4c3)c2n1 [Compound 430, (S)-2-ethyl-N-(8-fluoro-2-methylimidazo[1,2-a]pyridin-6-yl)-4-(3-(hydroxymethyl)piperazin-1-yl)-2H-indazole-7-carboxamide] | < 100 | 1000 to 10000 |  | 

From patent US20250154169A1, “COMPOUNDS AND METHODS FOR MODULATING SPLICING” (REMIX THERAPEUTICS INC., priority 2021, published 2025)
